Laboratory results published in patent US12642805B2, “Use of oxygenated cholesterol sulfates for treating at least one of insulin resistance, diabetes, and prediabetes” (Medicis Pharmaceutical Corporation, priority 2020, dated 2026).

Assays:
Type in all cases: in vivo, rat
[1] = excretion mass balance after single intravenous dose; details: rats, 10 mg/kg intravenous, over 168 hours
Method: (§1) Nine male Sprague Dawley rats (Group 1) were designated for the pharmacokinetic phase, 3 male Sprague Dawley rats (Group 2) for the excretion mass balance phase, and 7 male Sprague Dawley rats (Group 3) and 9 male Long Evans rats (Group 4) for the tissue distribution phase. All animals received a single intravenous dose of [1^4C]-25HC3S at 10 mg/kg and a target radioactivity of 225 μCi/kg. Blood samples were collected from all Group 1 animals at approximately 0.083, 0.25, 0.5, 1, 2, 4, 8, 12, 24, 48, and 72 hours post-dose. Urine and feces were collected from all Group 2 animals periodically through 168 hours post-dose. […] Following blood collection, animals were euthanized by CO2 inhalation and carcasses frozen in a dry ice/hexane bath for processing by quantitative whole body autoradiography. Whole blood, plasma, urine, feces, cage rinse, and cage wash were analyzed for total radioactivity by liquid scintillation counting.

[2] = plasma pharmacokinetics of radioactivity after single oral (gavage) dose; details: rats, 75 mg/kg single oral (gavage)
Method: The terminal elimination phase T1/2 was 27.3 hours.

[3] = quantitative whole body autoradiography tissue distribution, oral, Sprague Dawley rats; details: 75 mg/kg oral
Source text: No [1^4C]-25HC3S-derived radioactivity was detected in the eye (lens).

[4] = quantitative whole body autoradiography tissue distribution, intravenous, Sprague Dawley rats; details: 10 mg/kg intravenous
Method: as §1

[5] = plasma pharmacokinetics of radioactivity after single intravenous dose; details: rats, 10 mg/kg single intravenous bolus
Method: as §1

[6] = quantitative whole body autoradiography tissue distribution, intravenous, Long Evans rats; details: 10 mg/kg intravenous
Method: as §1

With C[C@H](CCCC(C)(C)O)[C@H]1CC[C@H]2[C@@H]3CC=C4[14CH2][C@@H](OS(=O)(=O)O)CC[C@]4(C)[C@H]3CC[C@]12C [[4-^14C]-25HC3S] the “recovered radioactivity in feces” value [1] was 83.0%, the “terminal elimination phase T1/2, plasma” value [2] was 27.3 h and the “Skin, thymus, prostate, and pituitary tissue concentrations” value [3] was less than 3000 ng equiv./g. The “Uveal tract and brain concentrations” value [3] was “approximately 1000 ng equiv./g”, the “tissue Tmax” value [3] was no more than 6 h and the “tissue:plasma ratio (AUClast), adrenal gland” value [3] was 6.64. For the same compound, the “tissue:plasma ratio (AUClast), liver” value [3] was 6.96, the “tissue:plasma ratio (AUClast), small intestine (wall)” value [3] was 15.4 and the “tissues in which radioactivity was detected” value [3] was “all tissues except the eye (lens)”. The “T1/2 in plasma (QWBA phase)” value [4] was 44.3 h, the “T1/2 in whole blood (QWBA phase)” value [4] was 52.2 h and the “maximum plasma concentration (QWBA phase)” value [4] was 12,400 ng-equiv./g. The “plasma:whole blood AUClast ratio” value [4] was 0.79, the “tissue:plasma ratio (AUClast), liver” value [4] was 11.4 and the “tissue:plasma ratio (AUClast), small intestine (wall)” value [4] was 7.44. For the same compound, the “tissues in which radioactivity was detected” value [4] was “all tissues except the eye (lens)”, the “mean plasma C0 (radioactivity)” value [5] was 25,900 ng-equiv./g and the “time by which plasma and whole blood concentrations were below quantitation limit” value ([6]; Long Evans (pigmented) rats) was no more than 336 h. The “binding to pigmented or non-pigmented skin or the uveal tract” value ([6]; Long Evans rats) was “no difference in binding to pigmented or non-pigmented skin or the uveal tract” and the “time by which concentrations in skin and uveal tract tissues were below quantitation limit” value ([6]; Long Evans rats) was no more than 168 h.
